Results: patent US10695330B2, “Methods of treatment” (Global Blood Therapeutics, Inc., priority 2015, dated 2020)

How the values were obtained:
macrophages = assay: Production of TNF-α and IL-6 by macrophages; type: cell-based; conditions: in vitro
Excerpt: Reactive oxygen species (ROS) released from activated white blood cells cause lung injury as well as fibrotic changes in patients with IPF. […] Thus, the compounds described herein could also provide a method to inhibit the adverse effects of inflammation in a patient. Reduction in systemic pro-inflammatory cytokines (tumor necrosis alpha and interleukin-6) also has the potential to exert a broad anti-inflammatory effect which would supplement the beneficial effect of alleviation of hypoxemia via increased hemoglobin-O2 affinity.

[1] = system: mice with bleomycin-induced fibrosis; assay: Bleomycin induced mouse model of hypoxemia and pulmonary fibrosis; type: in vivo
Method: Forty-eight C57B/L6 male mice aged 7-8 weeks were obtained from Simonsen Laboratory, Gilroy, Calif. The mice were ear tagged and weighed prior to the start of the study. The animals were distributed into four groups with twelve animals in each group. Body weights of all mice were recorded daily during the study. Animals in groups 2, 3 and 4 were administered 3 U/kg bleomycin sulfate USP (Teva Pharmaceuticals) via oropharyngeal route […] (see Walters, D. M. and S. R. Kleeberger (2008). “Mouse models of bleomycin-induced pulmonary fibrosis.” Curr Protoc Pharmacol Chapter 5: Unit 5 46.) Animals in group 1 were administered normal saline via oropharyngeal route.
Compound 1 (formulated in dimethylacetamide: polyethylene glycol 400 (PEG400): 40% cavitron at a 1:5:4 ratio) was administered at either low dose (first day 50 mg/kg followed by 40 mg/kg daily) or high dose (first day 150 mg/kg followed by 85 mg/kg daily) via oral gavage to bleomycin treated mice once daily from day 8 to day 15. Animals in group 1 were administered vehicle via oral gavage. The dosing volume was 200 μL. The study animals were sacrificed on day 15 at 4 hours post final dose.
Samples for hemoximetry and pharmacokinetics (PK) were taken 4 hours following the last dose of the dosing regimen. BAL fluid was collected from the lungs of the animals by lavaging the lung with 1 ml Hanks balanced salt media (HBSS). Lungs were harvested from each animal and weighed. They were then inflated by ˜0.5 mL of 10% NBF and fixed in a formalin container for subsequent histopathological analysis.
Hypoxia is a feature of IPF, and oxygen saturation measurements are often used clinically to evaluate the presence and severity of hypoxia. Responses to hypoxia in mice treated with Compound 1 were first evaluated by measuring arterial oxygen saturation (SaO2). On day 7 and 14 after bleomycin or saline instillation, 50 μL of arterial blood from the tail artery were used for measurement of arterial oxygen saturation (SaO2) using whole blood GEM OPL co-oximeter (Instrumentation Laboratory, MA). An additional aliquot of 100 μL of blood were collected from tail artery and arterial blood gases using the i-STAT Handheld Blood Analyzer (ABBOTT) were measured using CG4+ cartridges. For each mouse, SaO2 and arterial oxygen tension (pO2) were measured. […] In contrast, arterial oxygenation levels of vehicle treated mice further declined throughout the study (FIG. 4C). The arterial blood gases (ABG) were also analyzed on day 7 and day 14 (FIG. 4C). Data are expressed as means±SEM. […] In vehicle-treated bleomycin mice the pO2 reached a further decline at day 14.
In this bleomycin model, mice develop extensive pulmonary fibrosis as well as pulmonary inflammation; thus, the effect of Compound 1 treatment on the phenotype of pulmonary inflammatory cells was examined. The BAL fluid was centrifuged at 1,000 rpm at 4° C. for 5 minutes. The BAL cell pellets were suspended in 2 mls of 1× Pharmalyse buffer (BD Bioscience) to lyse the RBCs. PBS+2% FBS were added to stop the lysis reaction and cells centrifuged again. Leukocytes in the cell pellet were counted using a hemocytometer and the trypan blue exclusion method.
Pulmonary fibrosis was induced by administering mice a single dose of bleomycin. Collagen content of was determined by quantifying total soluble collagen in the BALF supernatant using the Sircol collagen dye binding assay according to the manufacturer's instructions (Biocolor Ltd, Carrick Fergus, UK).
Lungs were harvested from each animal and weighed at Day 15.
The histopathological analysis was conducted at Seventh Wave Laboratories, Chesterfield, Mo. The lung samples were processed and embedded with all lobes from each mouse in one paraffin block. Coronal sections through the four major lobes were stained with Masson's Trichrome. For each animal, consecutive lung fields were examined in a raster pattern using a 20× objective lens and a 10× or 40× ocular lens (200× or 800×). […]

[2] = system: mice with LPS-induced ALI; assay: LPS-induced acute lung injury mouse model with hypoxic challenge: inflammation, SpO2, survival; type: in vivo; conditions: for survival: after 4 hours of exposure to 5% O2 hypoxia; for increase of SpO2, of control value: 5% O2 hypoxia
Method: Adult, 8-10-week-old male C57BL/6J mice (Jackson Laboratory, Bar Harbor, Me.), were anesthetized with isoflurane, injected with 100 μg LPS (Sigma, St. Louis, Mo.) in 100 μL PBS by direct intratracheal injection. After 24 hours, mice were given Compound 1 (70 or 140 mg/kg formulated in dimethylacetamide, polyethylene glycol 400 (PEG400) and 40% cavitron in a ratio of 1:5:4, respectively) or vehicle only (5 μL/g) by oral gavage 2 hours prior to placement in a hypoxia chamber. Mice were exposed to either 10 or 5% O2 for 4 hours. Oxygen saturation (SaO2) was measured with a pulse oximeter (STARR Life Sciences, Oakmont, Pa.) at baseline and hourly during hypoxic exposure. During hypoxic exposure, mice were monitored continuously and a moribund check was done every 15 minutes. Time to death was assessed by time to moribund status. Mice were determined to be moribund if they could not right themselves when placed in a supine position.
Blood was collected by cardiac puncture in the hypoxic chamber. Blood gases were measured using the i-STAT portable analyzer within the hypoxic environment (Abaxis, Union City, Calif.). Remaining blood samples were used for hemoximetry and pharmacokinetic analysis. For sample collection, mice were euthanized with pentobarbital overdose. A bronchoaleveolar lavage (BAL) was performed with 900 uL Saline. Blood was collected by retro orbital puncture, and then spun to collect plasma. Lungs were removed and flash frozen. All samples were stored at −80° C. until further study. BAL inflammatory cell counts and differentials were determined manually after staining cytospins with DiffQuik. BAL protein was measured using a Pierce BCA Protein Assay Kit (Thermo Scientific, Waltham, Mass.).
Using a MouseOx, peripheral arterial O2 saturation (SpO2) was measured during hypoxia. SpO2 was measured for each group every hour during hypoxia. In general, SpO2 decreased during hypoxia for all groups. […] For example, during 5% O2 hypoxia, Compound 1 at 70 mg/kg or 140 mg/kg increased SpO2 by 22% or 31% of control value, respectively.
During exposure hypoxia, mice were monitored continuously and a moribund check was done every 15 minutes. Time to death was assessed by time to moribund status. Mice were determined to be moribund if they could not right themselves when placed in a supine position.

O=Cc1c(O)cccc1OC[C@@H]1CCCCN1C(=O)c1cccnc1 [Compound 1, (S)-2-hydroxy-6-((1-nicotinoylpiperidin-2-yl)methoxy)benzaldehyde]
anti-inflammatory activity (TNF-α and IL-6 production) (macrophages): anti-inflammatory activity
arterial oxygen tension (pO2) ([1]; day 14): tendency for an increase pO2 or prevention of further decline of pO2
arterial oxygen saturation (SaO2) ([1]; day 14, after seven consecutive days of treatment, low and high dose): return toward control values
improvement of overall Ashcroft scores ([1]; day 15, P<0.01): approximately 50%
collagen protein (total soluble collagen in BALF supernatant, Sircol) ([1]; day 15, P<0.05): significant reduction in collagen protein in the lungs
total inflammatory cells recovered in BAL fluid ([1]; day 15, P<0.05): significant reduction in total inflammatory cells recovered in BAL fluid
lung weight ([1]; day 15, vs bleomycin vehicle control, P<0.01): significantly heavier than lungs from Compound 1-treated mice
collagen deposition (Masson's trichrome histology) ([1]; day 15 lung sections, low and high dose): diminished collagen deposition
inflammation or lung injury (BALF total cells, neutrophils, macrophages, total protein) ([2]; 100 μg LPS intratracheal): no significant effect on inflammation or lung injury
survival ([2]; 70 mg/kg): 60%
survival ([2]; 140 mg/kg): 86%
increase of SpO2, of control value ([2]; 70 mg/kg): 22%
increase of SpO2, of control value ([2]; 140 mg/kg): 31%
SpO2 compared to control ([2]; during 10% and 5% O2 hypoxia, average over 4 hours): higher in Compound 1 dosed mice compared to control
